Usually pIC50 stands for the IC50 on a negative log10 scale, so that one unit is a factor of ten.

pIC50: −log10 of the molar value.

Sequence of angiotensin converting enzyme (P12821 30-1306, species assumed): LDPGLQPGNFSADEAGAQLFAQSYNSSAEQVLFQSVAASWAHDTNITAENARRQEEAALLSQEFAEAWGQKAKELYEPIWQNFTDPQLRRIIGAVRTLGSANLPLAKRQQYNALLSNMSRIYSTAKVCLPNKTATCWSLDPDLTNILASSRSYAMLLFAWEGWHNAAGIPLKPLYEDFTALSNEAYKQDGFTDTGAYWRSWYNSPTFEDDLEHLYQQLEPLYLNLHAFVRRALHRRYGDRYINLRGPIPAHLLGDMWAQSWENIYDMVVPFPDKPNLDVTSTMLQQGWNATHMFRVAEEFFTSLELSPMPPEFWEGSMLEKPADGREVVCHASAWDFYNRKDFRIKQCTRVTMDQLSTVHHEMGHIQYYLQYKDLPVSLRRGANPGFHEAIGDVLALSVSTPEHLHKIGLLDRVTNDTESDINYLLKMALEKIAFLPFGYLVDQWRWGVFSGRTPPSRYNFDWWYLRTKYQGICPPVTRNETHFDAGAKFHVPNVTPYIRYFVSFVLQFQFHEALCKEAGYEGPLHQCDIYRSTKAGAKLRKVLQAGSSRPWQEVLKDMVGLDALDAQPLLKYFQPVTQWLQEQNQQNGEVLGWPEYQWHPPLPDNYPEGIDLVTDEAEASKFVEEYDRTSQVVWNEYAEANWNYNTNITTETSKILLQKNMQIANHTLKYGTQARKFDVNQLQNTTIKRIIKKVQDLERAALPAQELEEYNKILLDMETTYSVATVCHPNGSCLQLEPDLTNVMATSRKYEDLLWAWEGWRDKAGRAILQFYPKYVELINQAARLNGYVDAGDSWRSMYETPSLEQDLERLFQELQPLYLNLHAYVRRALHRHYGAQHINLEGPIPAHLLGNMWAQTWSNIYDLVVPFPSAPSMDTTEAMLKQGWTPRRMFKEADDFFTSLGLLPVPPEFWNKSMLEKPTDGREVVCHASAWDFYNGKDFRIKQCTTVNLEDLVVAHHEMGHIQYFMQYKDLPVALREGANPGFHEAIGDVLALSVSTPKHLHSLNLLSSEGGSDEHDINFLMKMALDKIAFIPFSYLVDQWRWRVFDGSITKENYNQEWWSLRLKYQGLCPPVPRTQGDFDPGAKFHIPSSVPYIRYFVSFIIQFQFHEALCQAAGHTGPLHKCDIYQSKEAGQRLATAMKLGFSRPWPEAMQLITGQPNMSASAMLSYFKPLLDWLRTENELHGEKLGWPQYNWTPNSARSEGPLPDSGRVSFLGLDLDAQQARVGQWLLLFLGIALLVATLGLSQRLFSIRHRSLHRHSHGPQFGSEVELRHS

The target of this experiment is angiotensin converting enzyme (Homo sapiens, UniProt P12821). As to the kind of experiment: inhibition of the isolated angiotensin converting enzyme. Type of experiment: biochemical. The text has this:
The following values were obtained for the inhibition of the isolated angiotensin converting enzyme: […]
`NCCCC[C@H](N[C@@H](CCc1ccccc1)C(=O)O)C(=O)N1Cc2sccc2C[C@H]1C(=O)O` [Example 7, N-[N-(1(S)-Carboxy-3-phenylpropyl)-L-lysyl]-4,5,6,7-tetrahydro-thieno[2,3-c]pyridine-5(S)-carboxylic acid] gave a pIC50 of 7.85. In the case of `NCCCC[C@H](N[C@@H](CCc1ccccc1)C(=O)O)C(=O)N1CCc2sccc2[C@H]1C(=O)O` [Example 2, N-[N-(1(S)-Carboxy-3-phenylpropyl)-L-lysyl]4,5,6,7-tetrahydro-thieno[3,2-c]pyridine-4(S)-carboxylic acid] it was 8.46.

As for `NCCCC[C@H](N[C@@H](CCc1ccccc1)C(=O)O)C(=O)N1Cc2ccsc2C[C@H]1C(=O)O` [Example 10, N-[N-(1(S)-Carboxy-3-phenylpropyl)-L-lysyl]-4,5,6,7-tetrahydro-thieno[3,2-c]pyridine-6(S)-carboxylic acid], the negative-log IC50 (pIC50) was 8.54.

For `NCCCC[C@H](N[C@@H](CCc1ccccc1)C(=O)O)C(=O)N1CCc2ccsc2[C@@H]1C(=O)O` [Example 4, N-[N-(1(S)-Carboxy-3-phenylpropyl)-L-lysyl]4,5,6,7-tetrahydro-thieno[2,3-c]pyridine-7(S)-carboxylic acid], the pIC50 was 7.74.
